Patent publication US9763454B2, “Composition comprising a biological control agent and a fungicide” (Bayer CropScience AG, priority 2012, dated 2017)

Assays:
Rhizoctonia solani = assay: Rhizoctonia test (cotton)/Drench; assay type: in vivo; conditions: greenhouse, 30 ml drench per pot, 7 days at 20° C., BioAct 4 × 10^11 cfu/seed, F70 1.2 mg ai/seed
Experimental: (§1) The test is performed under greenhouse conditions.
Perlite was incubated with mycelia of Rhizoctonia solani. Infected perlite was scattered in a 1:1 mix of steamed field soil and sand and was incubated in a dark box in greenhouse for 6 days. After soil incubation, cotton seeds were sown in 6*6 cm pots containing this soil mixture.
Compounds and compound combinations were suspended and diluted with water to the desired concentrations. 30 ml of compound or compound combination preparation were drenched on each pot. Pots were incubated in the greenhouse for 7 days at 20° C.
Assessment consisted of counting of emerged seedlings. 0% means an efficacy which corresponds to that of the untreated control, while an efficacy of 100% means that all seedlings have emerged.

[1] = tested on: cotton (variety Vicky) seedlings; assay: Hypocotyl growth enhancement (cotton)/Drench; assay type: in vivo; conditions: 7 days after sowing
Experimental: as §1
Five cotton (variety Vicky) seeds were sown in a 6*6 cm pot containing 1:1 mix of steamed field soil and sand. Compounds and compound combinations were suspended and diluted with water to the desired concentrations. Just after sowing, 30 ml of compound or compound combination preparation were drenched on each pot. The pots (three replications per treatment) were placed in randomized arrangement in the greenhouse and kept at 20° C. for 7 days.
Length of hypocotyls was measured at 7 days after sowing.

O=C(NCCc1ncc(C(F)(F)F)cc1Cl)c1ccccc1C(F)(F)F [F70 fluopyram, fluopyram]
Efficacy in % found (activity found; emerged seedlings) (Rhizoctonia solani): 0% | Seedling/hypocotyl length compared in words ([1]; drench): significantly higher than untreated | Hypocotyl (length, average of 15 seedlings) ([1]; greenhouse, 30 ml drench per pot, 20° C., BioAct 4 × 10^11 cfu/plant, F70 1.2 mg ai/plant, untreated 5.3): 5.9 cm
